Active and inactive are the calls of the source. No cut-off for these calls is given here.
What was measured:
[1] = target: T1, Neuronal acetylcholine receptor; alpha4/beta2 (Homo sapiens, UniProt P17787+P43681); assay: Displacement of [3H]epibatidine from human alpha4beta2 nAChR expressed in human HEK293T cells after 1.5 hrs by liquid scintillation counting; format: cell-based; conditions: HEK-293T
[2] = target: T2, Neuronal acetylcholine receptor subunit alpha-7 (Homo sapiens, UniProt P36544); assay: Displacement of [3H]-MLA from human alpha7 nAChR expressed in human SH-SY5Y cells after 1.5 hrs by liquid scintillation counting; format: cell-based
[3] = target: Acetylcholine-binding protein (Lymnaea stagnalis, UniProt P58154); assay: Displacement of [3H]-epibatidine from histidine-tagged Lymnaea stagnalis AChBP expressed in Sf9 cells after 1.5 hrs by liquid scintillation counting
[4] = Displacement of [3H]epibatidine from histidine-tagged Aplysia californica AChBP expressed in Sf9 cells after 1.5 hrs by liquid scintillation counting
[5] = target: T1, Neuronal acetylcholine receptor; alpha4/beta2; assay: Antagonist activity at human alpha4beta2 nAChR high affinity site expressed in Xenopus oocytes assessed as inhibition of acetylcholine-induced effect at 10 uM by electrophysiology assay; format: functional, cell-based; conditions: Oocyte
[6] = target: T2, Neuronal acetylcholine receptor subunit alpha-7; assay: Competitive inhibition of human alpha7 nAChR expressed in Xenopus oocytes by electrophysiology assay; format: cell-based; conditions: Oocyte
[7] = target: T2, Neuronal acetylcholine receptor subunit alpha-7; assay: Antagonist activity at human alpha7 nAChR low affinity site expressed in Xenopus oocytes assessed as inhibition of acetylcholine-induced effect at 7 uM by electrophysiology assay; format: functional, cell-based; conditions: Oocyte
[8] = target: T1, Neuronal acetylcholine receptor; alpha4/beta2; assay: Antagonist activity at human alpha4beta2 nAChR expressed in Xenopus oocytes assessed as increase of acetylcholine-induced effect by electrophysiology assay; format: functional, cell-based, Oocyte
[9] = target: T1, Neuronal acetylcholine receptor; alpha4/beta2; assay: Antagonist activity at human alpha4beta2 nAChR low affinity site expressed in Xenopus oocytes assessed as inhibition of acetylcholine-induced effect at 10 uM by electrophysiology assay; format: functional, cell-based; conditions: Oocyte
[10] = target: T1, Neuronal acetylcholine receptor; alpha4/beta2; assay: Competitive inhibition of human alpha4beta2 nAChR expressed in Xenopus oocytes by electrophysiology assay; format: cell-based; conditions: Oocyte
[11] = target: T2, Neuronal acetylcholine receptor subunit alpha-7; assay: Antagonist activity at human alpha7 nAChR expressed in Xenopus oocytes assessed as increase of acetylcholine-induced effect by electrophysiology assay; format: functional, cell-based, Oocyte
[12] = target: T2, Neuronal acetylcholine receptor subunit alpha-7; assay: Antagonist activity at human alpha7 nAChR low affinity site expressed in Xenopus oocytes assessed as inhibition of acetylcholine-induced effect at 10 uM by electrophysiology assay; format: functional, cell-based; conditions: Oocyte
[13] = target: T1, Neuronal acetylcholine receptor; alpha4/beta2; assay: Antagonist activity at human alpha4beta2 nAChR low affinity site expressed in Xenopus oocytes assessed as inhibition of acetylcholine-induced effect at 55 uM by electrophysiology assay; format: functional, cell-based; conditions: Oocyte
[14] = target: T1, Neuronal acetylcholine receptor; alpha4/beta2; assay: Antagonist activity at human alpha4beta2 nAChR high affinity site expressed in Xenopus oocytes assessed as inhibition of acetylcholine-induced effect at 55 uM by electrophysiology assay; format: functional, cell-based; conditions: Oocyte
[15] = target: T1, Neuronal acetylcholine receptor; alpha4/beta2; assay: Antagonist activity at human alpha4beta2 nAChR expressed in Xenopus oocytes assessed as inhibition of acetylcholine-induced effect at 100 uM by electrophysiology assay; format: functional, cell-based; conditions: Oocyte
[16] = target: T2, Neuronal acetylcholine receptor subunit alpha-7; assay: Antagonist activity at human alpha7 nAChR expressed in Xenopus oocytes assessed as acetylcholine-induced effect at 100 uM by electrophysiology assay; format: functional, cell-based; conditions: Oocyte
[17] = target: T1, Neuronal acetylcholine receptor; alpha4/beta2; assay: Antagonist activity at human alpha4beta2 nAChR low affinity site expressed in Xenopus oocytes assessed as inhibition of acetylcholine-induced effect at 220 uM by electrophysiology assay; format: functional, cell-based; conditions: Oocyte
[18] = target: T1, Neuronal acetylcholine receptor; alpha4/beta2; assay: Antagonist activity at human alpha4beta2 nAChR high affinity site expressed in Xenopus oocytes assessed as inhibition of acetylcholine-induced effect at 220 uM by electrophysiology assay; format: functional, cell-based; conditions: Oocyte
[19] = target: T2, Neuronal acetylcholine receptor subunit alpha-7; assay: Antagonist activity at human alpha7 nAChR low affinity site expressed in Xenopus oocytes assessed as inhibition of acetylcholine-induced effect at 20 uM by electrophysiology assay; format: functional, cell-based; conditions: Oocyte

T1 sequence (P17787 whole entry): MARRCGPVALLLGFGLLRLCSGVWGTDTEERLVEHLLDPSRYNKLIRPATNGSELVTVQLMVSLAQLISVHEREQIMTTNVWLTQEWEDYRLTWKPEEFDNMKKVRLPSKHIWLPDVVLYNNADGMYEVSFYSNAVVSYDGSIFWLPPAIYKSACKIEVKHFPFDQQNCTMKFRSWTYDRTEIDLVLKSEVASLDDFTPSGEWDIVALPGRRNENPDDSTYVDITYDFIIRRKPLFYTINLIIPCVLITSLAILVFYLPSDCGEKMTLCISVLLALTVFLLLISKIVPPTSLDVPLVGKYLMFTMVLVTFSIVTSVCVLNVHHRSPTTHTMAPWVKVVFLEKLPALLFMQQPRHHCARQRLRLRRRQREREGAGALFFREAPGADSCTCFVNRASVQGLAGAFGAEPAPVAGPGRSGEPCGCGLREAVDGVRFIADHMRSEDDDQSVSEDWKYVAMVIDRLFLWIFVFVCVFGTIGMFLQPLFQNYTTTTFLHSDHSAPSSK
T1 sequence (P43681 whole entry): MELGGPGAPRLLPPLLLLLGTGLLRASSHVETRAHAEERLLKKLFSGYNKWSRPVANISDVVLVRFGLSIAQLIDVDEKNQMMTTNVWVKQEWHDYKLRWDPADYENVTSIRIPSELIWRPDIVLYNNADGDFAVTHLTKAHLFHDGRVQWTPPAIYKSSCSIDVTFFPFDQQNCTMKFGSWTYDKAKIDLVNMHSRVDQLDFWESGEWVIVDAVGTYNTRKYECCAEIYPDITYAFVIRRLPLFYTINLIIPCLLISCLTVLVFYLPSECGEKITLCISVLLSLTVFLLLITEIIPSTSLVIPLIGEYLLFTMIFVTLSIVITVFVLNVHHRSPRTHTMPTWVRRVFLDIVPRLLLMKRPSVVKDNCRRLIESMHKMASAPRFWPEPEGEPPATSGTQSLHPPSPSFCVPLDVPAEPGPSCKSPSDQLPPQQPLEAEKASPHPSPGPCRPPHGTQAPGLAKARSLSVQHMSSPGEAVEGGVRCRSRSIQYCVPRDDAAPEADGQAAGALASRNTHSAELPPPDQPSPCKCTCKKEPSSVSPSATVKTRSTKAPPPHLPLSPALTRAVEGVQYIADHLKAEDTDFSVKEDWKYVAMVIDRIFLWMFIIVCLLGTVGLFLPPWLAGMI
T2 sequence (P36544 whole entry): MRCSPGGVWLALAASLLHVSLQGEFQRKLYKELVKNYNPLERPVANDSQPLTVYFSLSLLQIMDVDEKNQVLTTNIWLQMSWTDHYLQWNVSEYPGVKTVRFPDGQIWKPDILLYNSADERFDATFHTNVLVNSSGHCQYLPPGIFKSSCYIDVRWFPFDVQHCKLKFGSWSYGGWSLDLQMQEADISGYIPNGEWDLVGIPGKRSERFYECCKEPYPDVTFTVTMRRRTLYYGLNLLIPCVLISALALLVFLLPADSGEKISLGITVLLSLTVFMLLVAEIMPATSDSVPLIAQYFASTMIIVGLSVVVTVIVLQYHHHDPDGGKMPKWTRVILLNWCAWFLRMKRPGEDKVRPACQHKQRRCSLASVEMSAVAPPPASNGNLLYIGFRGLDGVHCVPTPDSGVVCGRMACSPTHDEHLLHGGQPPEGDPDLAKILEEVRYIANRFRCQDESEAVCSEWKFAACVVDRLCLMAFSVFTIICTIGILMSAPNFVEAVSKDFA
Acetylcholine-binding protein, sequence (P58154 whole entry): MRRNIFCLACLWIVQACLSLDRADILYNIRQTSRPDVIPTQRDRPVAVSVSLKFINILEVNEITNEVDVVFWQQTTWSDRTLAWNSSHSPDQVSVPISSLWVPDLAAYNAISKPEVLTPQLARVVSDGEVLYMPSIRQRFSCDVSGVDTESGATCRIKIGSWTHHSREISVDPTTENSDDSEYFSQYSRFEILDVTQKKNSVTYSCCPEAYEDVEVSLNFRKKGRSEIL

Row | Compound | Activity [1] | Ki [2] | Ki [3] | other results
1 | ClC1(CNc2ccccc2)CCN(Cc2ccccc2)CC1 | inactive | ≥ 31.6 µM | 1.58 µM | –
2 | NCC(OCc1ccc(Cl)cc1)c1ccccc1 (stereo not drawn) | inactive | ≥ 31.6 µM | 6.31 µM | pKi [4]: 4.9; inhibition [5]: 13%; inhibition [6]: Active; inhibition [7]: Active; EC50 [8]: 10 µM; inhibition [9]: 87%; inhibition [10]: inactive
3 | CN1CC2Cc3ccccc3C1c1ccccc12 (stereo not drawn) | inactive | ≥ 31.6 µM | 0.794 µM | EC50 [8]: 10 µM
4 | c1ccc(C2CCN(CCc3cc4ccccc4[nH]3)CC2)cc1 | inactive | ≥ 31.6 µM | 1 µM | pKi [4]: 5.3; inhibition [6]: Active; EC50 [11]: 10 µM; inhibition [12]: Active; inhibition [13]: 75%; inhibition [10]: inactive; inhibition [14]: 25%
5 | CC(C)(C)c1ccc(C(CN)c2ccccc2)cc1 (stereo not drawn) | inactive | ≥ 31.6 µM | ≥ 31.6 µM | –
6 | CN1CCC(c2noc3ccccc23)CC1 | inactive | ≥ 31.6 µM | 12.6 µM | –
7 | Cc1ccc(C(OCC2CCC[N+](C)(C)C2)c2ccccc2)cc1 (stereo not drawn) | inactive | 10 µM | 0.501 µM | –
8 | NCC(c1ccccc1)c1ccc(-c2ccccc2)cc1 (stereo not drawn) | inactive | ≥ 31.6 µM | 12.6 µM | EC50 [8]: 10 µM
9 | CC1CC2(CCCCC2)NCc2ccccc21 (stereo not drawn) | inactive | ≥ 31.6 µM | 0.631 µM | –
10 | c1ccc2c(c1)CC1CNC2c2ccccc21 (stereo not drawn) | inactive | ≥ 31.6 µM | 12.6 µM | EC50 [8]: 10 µM
11 | CC1(C)C=C(c2cc(Br)c(C3=CC(C)(C)NC(C)(C)C3)s2)CC(C)(C)N1 | inactive | ≥ 31.6 µM | 0.398 µM | –
12 | c1ccc(Sc2ccccc2CN2CCCC2)cc1 | inactive | 15.8 µM | 0.2 µM | –
13 | CSc1[nH]c2ccccc2c1CN1CCCCC1 | inactive | 3.98 µM | 1.58 µM | –
14 | Cc1ccccc1C(OCCN1CCCCC1)c1ccccc1 (stereo not drawn) | inactive | 20 µM | 0.316 µM | –
15 | NCC(c1ccc(Cl)cc1)c1ccc(Sc2ccccc2)cc1 (stereo not drawn) | inactive | ≥ 31.6 µM | ≥ 31.6 µM | EC50 [11]: 10 µM; inhibition [10]: inactive
16 | c1ccc(CN2CCN(CCCSc3cc4ccccc4[nH]3)CC2)cc1 | inactive | ≥ 31.6 µM | 2 µM | –
17 | C[N+]1(CCO)Cc2sc3ccc(Cl)cc3c2C1 (stereo not drawn) | inactive | 20 µM | 1 µM | –
18 | c1ccc2c(c1)CCc1ccccc1C2NC12CC3CC(CC(C3)C1)C2 | inactive | ≥ 31.6 µM | ≥ 31.6 µM | inhibition [15]: inactive; inhibition [16]: inactive

Row | Compound | Activity [1] | Ki [2] | Ki [3] | other results
19 | CC1CC[N+]2(C)CCc3c([nH]c4ccccc34)C2C1 (stereo not drawn) | inactive | ≥ 31.6 µM | 0.631 µM | –
20 | CCN(CC)Cc1csc2ccc(Cl)cc12 | inactive | ≥ 31.6 µM | 3.98 µM | –
21 | CC1CCN(CCc2cc3ccccc3[nH]2)CC1 | inactive | ≥ 31.6 µM | 10 µM | EC50 [11]: 10 µM
22 | CC(C)(C)C(N)/C=C/c1ccc(Cl)cc1Cl (stereo not drawn) | inactive | ≥ 31.6 µM | 12.6 µM | –
23 | C=CC1CN2CCC1CC2c1[nH]c2ccccc2c1CCO (stereo not drawn) | inactive | ≥ 31.6 µM | 0.398 µM | –
24 | OC(COCc1ccc(Cl)cc1)CN1CCc2ccccc2C1 (stereo not drawn) | inactive | ≥ 31.6 µM | 1.58 µM | –
25 | c1ccc(C2CCN(CCc3nc4ccccc4[nH]3)CC2)cc1 | inactive | ≥ 31.6 µM | 2.51 µM | EC50 [11]: 10 µM
26 | CC(Cc1ccccc1)NC1CN2CCC1CC2 (stereo not drawn) | inactive | ≥ 31.6 µM | 3.16 µM | –
27 | NCc1ccsc1C(O)c1ccccc1 (stereo not drawn) | inactive | ≥ 31.6 µM | 25.1 µM | –
28 | O=C1CN(Cc2ccccc2)Cc2ccsc21 | inactive | ≥ 31.6 µM | ≥ 31.6 µM | inhibition [15]: inactive; inhibition [16]: inactive
29 | CN1CCN(Cc2ccccc2Sc2ccccc2)CC1 | inactive | 20 µM | 1.58 µM | –
30 | CC(=O)OCC[N+](C)(C)C [ACETYLCHOLINE] | – | – | 6.31 µM | pKi [4]: 4.3
31 | Cc1ccc(C(c2ccc(C)cc2)N(C)C)cc1 | inactive | ≥ 31.6 µM | ≥ 31.6 µM | EC50 [11]: 10 µM
32 | O=C1COc2ccccc2N1CCCCN1CCc2ccccc2C1 | inactive | ≥ 31.6 µM | 0.501 µM | –
33 | c1ccc2c(CN3CCCCC3)csc2c1 | inactive | 15.8 µM | 1 µM | –
34 | c1ccc2c3c([nH]c2c1)C1CCCN1CC3 (stereo not drawn) | inactive | ≥ 31.6 µM | 1.26 µM | –
35 | NCC(OCc1ccc(Cl)cc1Cl)c1ccccc1 (stereo not drawn) | inactive | ≥ 31.6 µM | 5.01 µM | EC50 [8]: 10 µM
36 | CC1NCCOC1c1ccc(Cl)cc1 (stereo not drawn) | inactive | ≥ 31.6 µM | 12.6 µM | EC50 [11]: 10 µM; inhibition [17]: 81%; inhibition [18]: 19%; inhibition [19]: Active

Reference: ChEMBL document CHEMBL1828593 (Bioorg Med Chem, 2011)
